Data reported in PMC5129982, “Screen-identified selective inhibitor of lysine demethylase 5A blocks cancer cell growth and drug resistance” (Oncotarget, 2016).

Legend:
[1] = target: T1, FLAG-KDM5C (Homo sapiens, UniProt P41229); test: AlphaScreen KDM5C demethylation assay; assay type: biochemical
T1 construct: Full-length FLAG-KDM5B, FLAG-KDM5C, and His-FLAG-KDM6A production was detailed previously; FLAG (N); made in house
Experimental: (§1) Histone demethylase assays were performed as described previously, with the exception of all enzyme reactions containing 125 μM α-KG. Enzymes were used at the following approximate concentrations in validation experiments, chosen based on their activity in AlphaScreen assays: 19 nM FLAG-KDM5A, 15 nM FLAG-KDM5B, 6 nM FLAG-KDM5C, 29 nM His-FLAG-KDM6A, and 16 nM FLAG-KDM6B. 24 nM FLAG-KDM5A was used for Km determination experiments. Reactions were carried out for 1 hour, or were stopped by addition of 30 mM EDTA every 5 minutes for determining enzyme kinetics. Km values were calculated using the Michaelis-Menten non-linear regression analysis on GraphPad Prism 6.0 software. The concentration of DMSO in demethylation reactions was 0.05%. For reactions with catalase, catalase (Sigma C30) or an equal volume of dilution buffer was added to the peptide-containing buffer before addition of the demethylase. The final concentration of catalase in the reactions was 0.01 mg/ml.
(§2) The AlphaScreen general IgG (protein A) detection kit from PerkinElmer Life Sciences was used as described previously. The luminescence emission was recorded at 570 nm using the AlphaScreen optic module on a Pherastar (BMG Labtech) or Envision (PerkinElmer Life Sciences) microplate reader.

[2] = system: MDA-MB-231 cells; test: WST-1 proliferation assay, MDA-MB-231; assay type: cell-based, human; conditions: MDA-MB-231, 5 days of treatment
Experimental: (§3) WST-1 reagent from Roche Applied Sciences (11644807001) was used to measure cell number before drug addition and after 3 or 5 days of growth as described previously. Cells were seeded in 96-well plates at the following number of cells per well: HeLa (2000), MCF7 (2000), ZR-75-1 (1000), MCF10A (1000), MDA-MB-231(5000). DMSO was used at 0.1%. Relative absorbance was calculated by subtracting the average background (media only) signal, dividing by the average signal on day 0, and then dividing by the average day 5/day 0 ratio for the DMSO controls. Significance was calculated by unpaired, two-tailed student's t-test using GraphPad Prism 6.0 software.

[3] = system: BT474 cells; test: Colony formation assay, BT474 (trastuzumab tolerance); assay type: cell-based, human
Experimental: Cells were seeded in 6-well plates at low density: HeLa, MCF7, BT474, and PC9 cells at 1000, 2000, 2500, and 2000 cells/well respectively. Media containing the prescribed drugs or 0.1% DMSO was replaced every 3 days. Trastuzumab was used at 5 μg/ml. Gefitinib was used at 2 μM. YUKA1 was used at 50 or 100 μM. Doxycycline was used at 1 μg/ml for 3 days. After 7–42 days depending on the rate of cell growth, cells were fixed in 4% para-formaldehyde in phosphate-buffered saline for 10 minutes rocking at room temperature. They were incubated in 0.05% crystal violet in double-distilled water for 30 minutes rocking at room temperature, washed with water, and dried 24 hours before photographing. ColonyArea, a plugin for ImageJ software, was used for quantification. Unpaired, two-tailed student's t-test calculated using GraphPad Prism 6.0 software was used to determine significance.

[4] = system: MCF7 cells; test: WST-1 proliferation assay, MCF7; assay type: cell-based, human; conditions: MCF7, after 3 days
Experimental: as §3

[5] = system: HeLa cells; test: WST-1 proliferation assay, HeLa; assay type: cell-based, human; conditions: after 3 days
Experimental: as §3

[6] = target: T2, FLAG-KDM5B (Homo sapiens, UniProt Q9UGL1); test: AlphaScreen KDM5B demethylation assay; assay type: biochemical
T2 construct: Full-length FLAG-KDM5B, FLAG-KDM5C, and His-FLAG-KDM6A production was detailed previously; FLAG (N); made in house
T2 sequence (Q9UGL1 whole entry): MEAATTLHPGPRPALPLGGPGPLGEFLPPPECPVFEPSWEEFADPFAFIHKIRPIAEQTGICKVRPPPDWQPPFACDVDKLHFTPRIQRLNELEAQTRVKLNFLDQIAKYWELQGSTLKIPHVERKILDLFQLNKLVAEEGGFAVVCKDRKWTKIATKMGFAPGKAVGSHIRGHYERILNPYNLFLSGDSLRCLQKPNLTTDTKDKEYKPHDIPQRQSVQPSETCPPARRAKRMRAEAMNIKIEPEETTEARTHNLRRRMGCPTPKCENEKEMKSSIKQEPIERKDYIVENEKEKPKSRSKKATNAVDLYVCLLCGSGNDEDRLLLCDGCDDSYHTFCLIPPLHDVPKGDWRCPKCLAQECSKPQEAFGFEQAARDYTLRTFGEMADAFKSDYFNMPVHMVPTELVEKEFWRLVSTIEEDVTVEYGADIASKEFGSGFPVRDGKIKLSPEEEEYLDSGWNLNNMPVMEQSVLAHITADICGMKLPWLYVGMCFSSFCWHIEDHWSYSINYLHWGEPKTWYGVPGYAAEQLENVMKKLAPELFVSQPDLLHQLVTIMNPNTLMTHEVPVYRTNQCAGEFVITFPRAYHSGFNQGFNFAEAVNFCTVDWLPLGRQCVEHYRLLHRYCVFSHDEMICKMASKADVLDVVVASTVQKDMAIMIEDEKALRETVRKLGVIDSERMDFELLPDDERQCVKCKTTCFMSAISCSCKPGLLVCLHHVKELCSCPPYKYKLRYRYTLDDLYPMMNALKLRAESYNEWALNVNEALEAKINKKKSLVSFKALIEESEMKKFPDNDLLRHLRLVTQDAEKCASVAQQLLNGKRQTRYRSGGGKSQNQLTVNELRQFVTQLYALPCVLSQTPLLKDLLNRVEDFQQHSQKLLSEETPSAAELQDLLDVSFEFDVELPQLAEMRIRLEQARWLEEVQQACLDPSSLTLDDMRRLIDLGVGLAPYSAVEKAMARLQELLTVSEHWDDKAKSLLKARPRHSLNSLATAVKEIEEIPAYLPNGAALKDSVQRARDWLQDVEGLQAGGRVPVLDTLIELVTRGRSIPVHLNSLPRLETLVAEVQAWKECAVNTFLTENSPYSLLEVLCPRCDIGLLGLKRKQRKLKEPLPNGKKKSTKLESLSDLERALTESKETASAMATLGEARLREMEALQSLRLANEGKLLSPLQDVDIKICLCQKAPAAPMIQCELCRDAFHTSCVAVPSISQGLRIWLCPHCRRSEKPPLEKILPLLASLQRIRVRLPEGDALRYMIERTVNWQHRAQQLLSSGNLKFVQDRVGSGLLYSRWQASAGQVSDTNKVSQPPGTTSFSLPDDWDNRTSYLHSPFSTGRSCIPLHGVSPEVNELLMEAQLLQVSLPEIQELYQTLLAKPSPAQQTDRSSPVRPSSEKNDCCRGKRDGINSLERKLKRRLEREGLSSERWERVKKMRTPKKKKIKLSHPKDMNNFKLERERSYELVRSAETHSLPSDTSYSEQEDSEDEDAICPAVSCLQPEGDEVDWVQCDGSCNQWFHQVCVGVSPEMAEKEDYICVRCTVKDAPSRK
Experimental: as §1, §2

[7] = system: H3K4 methylation in MCF10A cells; test: Western blot of global H3K4 methylation, MCF10A; assay type: cell-based, human; conditions: 72 hr treatment
Experimental: (§4) Cells were lysed as described previously. Histones were separated by centrifugation, resuspended in Laemmeli buffer, and sonicated. Protein concentration of cell lysates was measured by Bradford assay. Samples in Laemmeli buffer were boiled 10 minutes at 95°C and loaded onto 7% (whole cell lysates) or 18% (histones) SDS-PAGE gels. Membranes were blocked in 4% non-fat milk in Tris-buffered saline with 0.05% Tween (TBS-T) and incubated with primary antibodies in the same buffer or 5% bovine serum albumin in TBS-T overnight at 4°C. Membranes were incubated with secondary anti-rabbit or anti-mouse antibodies for one hour at room temperature. Blots were visualized by Thermo Scientific Pierce ECL Western Blotting Substrate (32106) or EMD Millipore Immobilon Western Chemiluminescent HRP Substrate (WBKLS0100) on film. Signal was quantified using ImageJ software.

[8] = target: T3, FLAG-KDM6B (1043-1682) (JMJD3) (Homo sapiens, UniProt O15054); test: AlphaScreen KDM6B demethylation assay; assay type: biochemical
T3 construct: FLAG-KDM6B (1043-1682) was purchased from BPS Bioscience (50115); FLAG (N); purchased BPS Bioscience 50115
T3 sequence (O15054 1043-1682 isoform O15054-1): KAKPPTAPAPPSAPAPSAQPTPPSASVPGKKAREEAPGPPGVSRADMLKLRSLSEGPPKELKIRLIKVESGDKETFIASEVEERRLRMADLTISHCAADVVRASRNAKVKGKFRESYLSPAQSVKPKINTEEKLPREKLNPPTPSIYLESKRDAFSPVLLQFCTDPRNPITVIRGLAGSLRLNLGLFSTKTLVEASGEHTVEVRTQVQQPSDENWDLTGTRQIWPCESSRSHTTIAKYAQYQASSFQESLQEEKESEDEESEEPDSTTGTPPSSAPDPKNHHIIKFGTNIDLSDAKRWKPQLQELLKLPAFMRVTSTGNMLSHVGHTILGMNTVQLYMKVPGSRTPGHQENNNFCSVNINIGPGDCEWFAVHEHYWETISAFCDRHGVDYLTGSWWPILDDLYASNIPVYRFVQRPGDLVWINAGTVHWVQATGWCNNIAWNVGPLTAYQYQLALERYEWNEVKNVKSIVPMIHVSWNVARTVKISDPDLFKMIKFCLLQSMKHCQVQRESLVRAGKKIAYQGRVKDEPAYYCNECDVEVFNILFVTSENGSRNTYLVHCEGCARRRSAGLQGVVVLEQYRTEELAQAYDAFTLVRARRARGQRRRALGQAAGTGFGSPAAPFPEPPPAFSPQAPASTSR
Experimental: as §1, §2

[9] = system: H3K4 methylation in MCF7 cells; test: Western blot of global H3K4 methylation, MCF7; assay type: cell-based, human; conditions: 48 hr
Experimental: as §4

[10] = system: H3K4 methylation in ZR-75-1 cells; test: Western blot of global H3K4 methylation, ZR-75-1; assay type: cell-based, human; conditions: ZR-75-1, 48 hour treatment
Experimental: as §4

T1 sequence (P41229 whole entry): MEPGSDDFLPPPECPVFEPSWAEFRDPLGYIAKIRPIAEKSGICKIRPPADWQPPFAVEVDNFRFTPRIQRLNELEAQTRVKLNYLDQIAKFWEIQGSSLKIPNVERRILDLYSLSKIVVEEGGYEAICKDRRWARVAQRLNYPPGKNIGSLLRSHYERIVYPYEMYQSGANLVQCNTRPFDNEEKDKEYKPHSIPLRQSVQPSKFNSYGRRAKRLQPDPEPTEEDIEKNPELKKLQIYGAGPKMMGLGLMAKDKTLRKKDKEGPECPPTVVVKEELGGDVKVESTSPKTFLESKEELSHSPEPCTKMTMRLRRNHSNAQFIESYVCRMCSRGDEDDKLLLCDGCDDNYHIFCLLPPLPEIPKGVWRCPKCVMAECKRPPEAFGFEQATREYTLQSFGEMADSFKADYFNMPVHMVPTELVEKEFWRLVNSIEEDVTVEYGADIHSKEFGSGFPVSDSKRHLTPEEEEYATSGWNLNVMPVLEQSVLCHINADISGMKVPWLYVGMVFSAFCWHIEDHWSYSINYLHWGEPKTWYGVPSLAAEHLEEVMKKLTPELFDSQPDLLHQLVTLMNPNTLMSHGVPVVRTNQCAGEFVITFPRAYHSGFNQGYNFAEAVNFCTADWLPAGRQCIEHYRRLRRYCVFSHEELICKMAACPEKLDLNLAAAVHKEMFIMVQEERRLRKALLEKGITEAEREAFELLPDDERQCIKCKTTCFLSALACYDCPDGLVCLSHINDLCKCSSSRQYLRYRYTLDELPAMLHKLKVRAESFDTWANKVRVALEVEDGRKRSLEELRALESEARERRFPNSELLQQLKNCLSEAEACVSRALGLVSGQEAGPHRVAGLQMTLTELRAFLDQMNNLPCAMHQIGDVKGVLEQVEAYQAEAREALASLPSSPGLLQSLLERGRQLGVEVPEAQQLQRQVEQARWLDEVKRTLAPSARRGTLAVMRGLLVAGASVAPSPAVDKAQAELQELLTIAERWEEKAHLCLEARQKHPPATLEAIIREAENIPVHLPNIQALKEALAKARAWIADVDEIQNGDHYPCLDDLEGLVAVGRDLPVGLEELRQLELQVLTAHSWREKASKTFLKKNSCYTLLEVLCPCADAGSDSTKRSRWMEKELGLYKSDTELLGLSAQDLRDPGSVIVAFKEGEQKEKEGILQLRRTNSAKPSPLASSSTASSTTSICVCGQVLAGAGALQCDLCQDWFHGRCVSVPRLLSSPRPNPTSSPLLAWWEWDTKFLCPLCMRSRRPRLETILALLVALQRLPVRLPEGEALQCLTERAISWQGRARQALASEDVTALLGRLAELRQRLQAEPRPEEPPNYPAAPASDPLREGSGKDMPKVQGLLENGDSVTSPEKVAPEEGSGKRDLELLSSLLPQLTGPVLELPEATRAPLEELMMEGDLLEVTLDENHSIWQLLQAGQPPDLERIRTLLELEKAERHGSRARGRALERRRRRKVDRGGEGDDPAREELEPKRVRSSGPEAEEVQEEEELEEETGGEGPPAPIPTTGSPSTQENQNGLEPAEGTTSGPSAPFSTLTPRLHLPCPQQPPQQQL

fold less active against KDM5C (than KDM5A) [1]: ~ 3 fold
IC50 ([1]; AlphaScreen): 7.12 µM
IC50 ([6]; AlphaScreen): > 50 µM
activity against KDM5B ([6]; at 50 μM): no activity
IC50 [8]: > 50 µM
SMILES: C=CCOc1c(CNn2cnnc2S)cccc1OC [YUKA1, 4-([2-(allyloxy)-3-methoxybenzyl]amino)-4H-1,2,4-triazole-3-thiol]
decrease in cell proliferation [2]: 10–15%
cell growth, compound alone ([3]; BT474, 35 days): not changed
emergence of colonies under trastuzumab ([3]; BT474, plus 5 μg/ml trastuzumab, 42 days): significantly less
proliferation [4]: not affected
proliferation relative to DMSO-treated cells [5]: less than half of DMSO-treated cells
H3K4 methylation levels [7]: did not affect H3K4 methylation levels
H3K4me3 Fold (H3K4me3/Total H3, normalized to DMSO) ([9]; MCF7, 50 μM): 0.8
H3K4me3 Fold (H3K4me3/Total H3, normalized to DMSO) ([9]; MCF7, 100 μM): 0.8
global H3K4me3 levels [10]: increased global H3K4me3 levels
